Assay results as given in patent US5639469A, “Transmucosal delivery system” (Minnesota Mining and Manufacturing Company, priority 1994, dated 1997).
Where two headings read alike, the source gives them in different places.

Legend:
[1] = In vivo rat model: plasma anti Xa after buccal dosing of gel; parameters: species or system rat (Wistar preferred); settings: Gel Formulation 11
Protocol: The in vivo delivery of heparinic anticoagulant from a gel is determined using a rat model.
This method uses rats of 220 to 500 grams in weight. Wistar rats are the preferred strain. The rats are anesthetized with ether and then a 2 cm vertical incision is made first through the skin and then through the underlying muscle. The esophagus is isolated and tied off with a surgical ligature. The incision is closed with a surgical stapler. After surgery the rats are dosed with the gel by syringe administration with half of the total dose in each cheek. The rats are slightly reanesthesized for dosing and blood withdrawal. Blood samples are withdrawn at 0, 1, 2, 3 and 4 hours post dose. Heparinic anticoagulant concentrations in plasma are determined by an enzymatic method measuring anti Xa using a test kit (Stachrom™ Heparin from Diagnostica Stago, 9 rue des Freres Chausson, 92600 Asnieres-sur Seine, France). Results are reported as the number of anti Xa units per mL of plasma.
A formulation was prepared according to the method set forth above in connection with Gel Formulation 1, except that the sodium dodecyl sulfate was eliminated and the penetration enhancers shown in Table 15 below were incorporated at 2, 5 and/or 10 percent by weight based on the total weight of the gel formulation. Low molecular weight heparin (mean molecular weight from 3450 to 4950 daltons with anti Xa of 65 to 144 units/mg, Bioiberica, Barcelona, Spain) was incorporated at concentrations of 10, 25 and 50 mg of heparin per mL of gel. In vivo delivery was determined using the rat model described above. Each rat was dosed with 0.2 mL of gel formulation to provide the dose of heparin shown in Table 15, wherein "n" designates the number of rats studied. The values obtained were used to calculate the promoting effect (P for each formulation. The promoting effect was calculated using the equation given below: [formula] where: Cmax (H) is equal to the maximal anti Xa activity in plasma after heparin administration without enhancer and Cmax (H+E) is equal to the maximal anti Xa activity in plasma after heparin administration with the enhancer. The results are shown in Table 15 below.

Xa = settings: cited from earlier work
[2] = enhancer 5 wt%, heparin 5 mg/rat

In the case of `CCCCCCCCCCCCCCCC(=O)OC(CC(=O)O)C[N+](C)(C)C` (racemic) [Palmitoyl DL carnitine chloride], the “promoting effect (P %)” value ([1]; enhancer 10 wt%, heparin 10 mg/rat) is reported as “+142%”.
With `O=C1CCCN1` [Pyrrolidone] the “promoting effect (P %)” value [1, 2] was -31%.
With `C[C@H](CCC(=O)O)[C@H]1CC[C@H]2[C@@H]3CC[C@@H]4C[C@H](O)CC[C@]4(C)[C@H]3C[C@H](O)[C@]12C` [Sodium deoxycholate] the “promoting effect (P %)” value ([1]; enhancer 2 wt%, heparin 5 mg/rat) was “+117%” and the “promoting effect (P %)” value [1, 2] was “+122%”.
For `C[C@H](CCC(=O)NCCC[N+](C)(C)CCCS(=O)(=O)[O-])[C@H]1CC[C@H]2[C@@H]3[C@H](O)C[C@@H]4C[C@H](O)CC[C@]4(C)[C@H]3C[C@H](O)[C@]12C` [CHAPS], the “promoting effect (P %)” value [1, 2] was “+2%”.
In the case of Low molecular weight heparin, the “anti Xa” value (Xa; mean molecular weight 3450 daltons, Bioiberica) is listed as 138 units/mg, the “anti Xa” value (Xa; mean molecular weight 5300 daltons, Bioiberica) is listed as 144 units/mg and the “anti Xa” value (Xa; molecular weight 3949, Bioiberica) is listed as 113 units/mg.
With `CCCCCCCCCCCCOS(=O)(=O)[O-].[Na+]` [Sodium dodecyl sulfate] the “promoting effect (P %)” value [1, 2] was “+189%”.
